The text below walks through data of US20070129330A1, “1,3-Diaza-dibenzo[e,h]azulenes for the treatment of central nervous system diseases and disorders” (Pliva-Istrazivacki Institut d.o.o., priority 2003, published 2007).

SMILES strings stand for the structures.

One experiment addresses T1, 5-HT2A receptor (Homo sapiens, UniProt P28223).
T1 construct: expressed in transfected cells; host or cells: CHO-K1 (alternatively human cortex tissue)
The experiment in a line: radioligand binding assay for 5-HT2A receptor ([3H]-ketanserin competitive binding). Particulars: human cortex or recombinant 5-HT2A receptor expressed in CHO-K1 cells; for IC50: read-out: binding affinity to 5-HT2A serotonin receptor expressed as IC50 value; for Ki: read-out: binding affinity to 5-HT2A serotonin receptor, Ki value. The procedure:
(§1) The effect of the compounds of the present invention on the neurochemical steady state was determined by in vitro investigations such as a radionuclide-marked radioligand binding assay for 5-HT2A (Bonhaus D. W. Br. J. Pharmacol. 1995, 115:622; Saucier C. J. Neurochem. 1997, 68:1998) and 5-HT2C receptors (Wolf W.A. J. Neurochem. 1997, 69:1449), in vitro binding assay for the σ1 receptor (Thomson W. and Donn R. Arthritis Res. 2002, 4: 302-306) and by in vivo investigations in a tail suspension test (Vogel H. G. and Vogel W. H. Drug Discovery and Evaluation Pharmacological Assays, Springer 1997, 304), in amphetamine-induced hyperlocomotion in mice (Millan M. J. et al, 1998 J. Pharmacol. Exp. Ther. 287: 167-186), in a forced swim test in mice (Porsolt R. D. et al. Arch. Int. Pharmacodyn. 1977, 229:327-336), in meta-chlorophenyl piperazine (m-CPP) test on rats (Drug Dev. Res. 1989, 18:119-144), and in apomorphine, tryptamine and norepinephrine (ATN) test in rats (Arch. Int. Pharmacodyn. 1977, 227:238-253).
(§2) A small concentration of a radioligand having a great affinity for binding to a receptor was incubated with a tissue sample enriched with a certain receptor (1-5 mg of tissue) in a buffered medium (0.2-5 mL). Recombinant human HT2A and HT2C receptors were expressed in CHO-K1 or COS-7 cells and were also used for competitive binding. During incubation the radioligand bound to the receptor. When a binding balance was achieved, the receptors to which the radioligand was bound were separated from those to which said ligand was not bound, and the radioactivity of the receptor/radioligand complex was measured. The interaction of the tested compounds with receptors was tested in competitive binding experiments. Various concentrations of tested compounds were added to the incubation mixture containing a prepared tissue enriched with corresponding receptors and the radioligand. The radioligand binding was inhibited by the test compounds proportionally to the affinity of a certain compound for the receptor and to the concentration of the compound.
(§3) The radioligand used for the determination of binding to 5-HT2A receptor was [^3H]-ketanserin and the tissue used was human cortex or recombinant 5-HT2A receptor expressed in CHO-K1 cells. The radioligand used for the determination of binding to 5-HT2C receptor was [^3H]-mesulergine and the tissue used was choroid plexus or recombinant 5-HT2C receptor expressed in CHO-K1 cells.
(§4) It is anticipated that similar results will be observed for other compounds of the invention.

A further experiment concerns the target T2, 5-HT2C receptor (Homo sapiens, UniProt P28335).
T2 construct: expressed in transfected cells; host or cells: CHO-K1 (alternatively choroid plexus tissue)
T2 sequence (P28335 33-458): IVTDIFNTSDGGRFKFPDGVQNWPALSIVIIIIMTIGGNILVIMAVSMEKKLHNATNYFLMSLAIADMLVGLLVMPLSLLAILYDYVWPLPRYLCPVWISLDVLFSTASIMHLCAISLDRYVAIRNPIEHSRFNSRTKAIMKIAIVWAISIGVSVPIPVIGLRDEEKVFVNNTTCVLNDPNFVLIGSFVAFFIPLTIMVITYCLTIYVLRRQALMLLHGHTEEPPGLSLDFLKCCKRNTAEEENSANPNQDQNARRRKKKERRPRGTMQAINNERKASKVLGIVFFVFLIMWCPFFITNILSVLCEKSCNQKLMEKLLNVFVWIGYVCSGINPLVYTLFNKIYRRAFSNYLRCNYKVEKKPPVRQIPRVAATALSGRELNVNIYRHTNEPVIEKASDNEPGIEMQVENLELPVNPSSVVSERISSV
Briefly: radioligand binding assay for 5-HT2C receptor ([3H]-mesulergine competitive binding). The note with it: choroid plexus or recombinant 5-HT2C receptor expressed in CHO-K1 cells; for IC50: read-out: binding affinity to 5-HT2C serotonin receptor expressed as IC50 value; for Ki: read-out: binding affinity to 5-HT2C serotonin receptor, Ki value. The procedure:
as §1, §2, §3, §4

T1 sequence (P28223 whole entry): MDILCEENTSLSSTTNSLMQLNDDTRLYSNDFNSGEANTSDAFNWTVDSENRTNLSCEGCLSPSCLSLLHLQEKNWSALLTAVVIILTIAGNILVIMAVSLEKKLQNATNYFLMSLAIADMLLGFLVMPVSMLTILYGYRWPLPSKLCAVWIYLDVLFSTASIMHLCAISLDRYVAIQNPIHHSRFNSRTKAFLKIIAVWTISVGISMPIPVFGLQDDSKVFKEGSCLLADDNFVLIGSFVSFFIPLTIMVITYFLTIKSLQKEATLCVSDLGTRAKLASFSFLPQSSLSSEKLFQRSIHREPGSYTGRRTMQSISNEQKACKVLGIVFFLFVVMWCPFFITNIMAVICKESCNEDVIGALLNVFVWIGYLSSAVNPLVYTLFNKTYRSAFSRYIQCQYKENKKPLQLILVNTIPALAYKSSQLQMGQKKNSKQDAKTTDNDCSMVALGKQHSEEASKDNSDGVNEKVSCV

For the compound `Clc1ccc2c(c1)-c1[nH]cnc1-c1ccccc1O2` [11chloro-1H-8-oxa-1,3-diaza-dibenzo[e,h]azulene], the half-inhibitory concentration (IC50) at 5-HT2A receptor and at 5-HT2C receptor was below 200 nM throughout. In addition, the Ki on 5-HT2A receptor and at 5-HT2C receptor was below 100 nM each time.
On to `CN(C)CCCOCc1nc2c([nH]1)-c1cc(Cl)ccc1Sc1ccccc1-2` [[3-(11-chloro-1H-8-thia-1,3-diaza-dibenzo[e,h]azulen-2-ylmethoxy)-propyl]-dimethyl-amine], for which, at 5-HT2A receptor, the IC50 (in general, the concentration at which inhibition is half-maximal) was below 200 nM and the inhibition constant (Ki) (as a rule, a measure of affinity in units of concentration, obtained from inhibition or displacement) was below 100 nM. Moreover, at 5-HT2C receptor, the IC50 was below 200 nM and the Ki is below 100 nM.
On to `CN(C)CCOCc1nc2c(n1C)-c1ccccc1Sc1ccccc1-2` [dimethyl-[2-(1-methyl-1H-8-thia-1,3-diaza-dibenzo[e,h]azulen-2-ylmethoxy)-ethyl]-amine], for which the IC50 at 5-HT2A receptor and on 5-HT2C receptor was below 200 nM in each case. Besides, the inhibition constant (Ki) on 5-HT2A receptor and at 5-HT2C receptor was below 100 nM each time.
Take `CN(C)CCCOc1ccccc1-c1nc2c([nH]1)-c1ccccc1Sc1ccccc1-2` [dimethyl-{3-[2-(1H-8-thia-1,3-diaza-dibenzo[e,h]azulen-2-yl)-phenoxy]-propyl}-amine]: at 5-HT2A receptor, the concentration for half-maximal inhibition (IC50) is below 200 nM and the Ki was below 100 nM. In addition, on 5-HT2C receptor, the 50% inhibitory concentration (IC50) was below 200 nM and the Ki is below 100 nM.
